Data as given in patent publication US4435583A, “2-Halo-substituted monic acid A useful as antibacterial compounds” (Beecham Group p.l.c., priority 1981, dated 1984).
Converted amounts (≈) assume the structure as drawn.

Tests used:
Type in all cases: cell-based
[1] = tested on: M. suipneumoniae PW/C/210; assay: In vitro anti-mycoplasmal MIC; settings: Mesomycoplasma hyopneumoniae, 144 h, Friis broth, 0.9% agarose, 6 days, 37° C., read-out: MIC
[2] = tested on: M. suipneumoniae NCTC 10110; assay: In vitro anti-mycoplasmal MIC; settings: Friis broth, 0.9% agarose, 6 days, 37° C.
M. suipneumoniae Str.11 = assay: In vitro anti-mycoplasmal MIC; settings: Friis broth, 0.9% agarose, 6 days, 37° C.
M. suipneumoniae UCD 1 = assay: In vitro anti-mycoplasmal MIC; settings: Friis broth, 0.9% agarose, 6 days, 37° C.
M. suipneumoniae LABER = assay: In vitro anti-mycoplasmal MIC; settings: Mesomycoplasma hyopneumoniae, 144 h, Friis broth, 0.9% agarose, 6 days, 37° C., read-out: MIC
[3] = tested on: M. bovigenitalium ATCC 14173; assay: In vitro anti-mycoplasmal MIC; settings: 144 h, Friis broth, 0.9% agarose, 6 days, 37° C., read-out: MIC
M. pneumoniae ATCC 15492 = assay: In vitro anti-mycoplasmal MIC; settings: Friis broth, 0.9% agarose, 6 days, 37° C.
Strep. dysgalactiae SPD1 = assay: MIC against veterinary bacteria; settings: Diagnostic Sensitivity Test Agar, 18 hours, 37° C.
Description: (§1) The values were determined using a two fold serial dilutions in Diagnostic Sensitivity Test Agar with an inoculum of 10^4 organisms and incubation for 18 hours at 37° C.

Bord. bronchiseptica B08 = assay: MIC against veterinary bacteria; settings: Diagnostic Sensitivity Test Agar, 18 hours, 37° C.
Description: as §1

E. coli NCTC 10418 [4] = assay: MIC against veterinary bacteria; settings: Diagnostic Sensitivity Test Agar, 18 hours, 37° C.
Description: as §1

[5] = tested on: Corynebacterium pyogenes CY1; assay: MIC against veterinary bacteria; settings: Diagnostic Sensitivity Test Agar, 18 hours, 37° C.
Description: as §1

Past. haemolytica PA5 = assay: MIC against veterinary bacteria; settings: Diagnostic Sensitivity Test Agar, 18 hours, 37° C.
Description: as §1

Staph. aureus 152 = assay: MIC against veterinary bacteria; settings: Diagnostic Sensitivity Test Agar, 18 hours, 37° C.
Description: as §1

S. typhimurium S18 = assay: MIC against veterinary bacteria; settings: Diagnostic Sensitivity Test Agar, 18 hours, 37° C.
Description: as §1

[6] = tested on: Strep. suis (group D) SPS11; assay: MIC against veterinary bacteria; settings: Diagnostic Sensitivity Test Agar, 18 hours, 37° C.
Description: as §1

Past. multocida PA1 = assay: MIC against veterinary bacteria; settings: Diagnostic Sensitivity Test Agar, 18 hours, 37° C.
Description: as §1

Staph. aureus Oxford [7] = assay: MIC against veterinary bacteria; settings: Diagnostic Sensitivity Test Agar, 18 hours, 37° C.
Description: as §1

E. coli E1 = assay: MIC against veterinary bacteria; settings: Diagnostic Sensitivity Test Agar, 18 hours, 37° C.
Description: as §1

[8] = tested on: Erysipelothrix rhusiopathiae NCTC 8163; assay: MIC against veterinary bacteria; settings: Diagnostic Sensitivity Test Agar, 18 hours, 37° C.
Description: as §1

Past. multocida PA2 = assay: MIC against veterinary bacteria; settings: Diagnostic Sensitivity Test Agar, 18 hours, 37° C.
Description: as §1

Staph. aureus B4 = assay: MIC against veterinary bacteria; settings: Diagnostic Sensitivity Test Agar, 18 hours, 37° C.
Description: as §1

Strep. agalactiae SPA1 = assay: MIC against veterinary bacteria; settings: Diagnostic Sensitivity Test Agar, 18 hours, 37° C.
Description: as §1

Bord. bronchiseptica B09 = assay: MIC against veterinary bacteria; settings: Diagnostic Sensitivity Test Agar, 18 hours, 37° C.
Description: as §1

Strep. uberis SPU1 = assay: MIC against veterinary bacteria; settings: Strep. uberis SPU1; Diagnostic Sensitivity Test Agar; 18 hours, 37° C.
Description: as §1

S. dublin S7 = assay: MIC against veterinary bacteria; settings: Diagnostic Sensitivity Test Agar, 18 hours, 37° C.
Description: as §1

[9] = tested on: M. suipneumoniae J2206/183b; assay: In vitro anti-mycoplasmal MIC; settings: Friis broth, 0.9% agarose, 6 days, 37° C.
M. suipneumoniae TAM 6N = assay: In vitro anti-mycoplasmal MIC; settings: Friis broth, 0.9% agarose, 6 days, 37° C.
[10] = tested on: Haemophilus influenzae Wy21; assay: MIC against human bacteria; settings: nutrient agar, 5% chocolated horse blood, 18 hours, 37° C., read-out: MIC
Description: (§2) The values were determined by serial dilutions in nutrient agar with 5% chocolated horse blood after incubations for 18 hours at 37° C.

Strep. faecalis I = assay: MIC against human bacteria; settings: nutrient agar, 5% chocolated horse blood, 18 hours, 37° C.
Description: as §2

[11] = tested on: Ps. aeruginosa NCTC 10662; assay: MIC against human bacteria; settings: nutrient agar, 5% chocolated horse blood, 18 hours, 37° C.
Description: as §2

Strep. pneumoniae CN33 = assay: MIC against human bacteria; settings: nutrient agar, 5% chocolated horse blood, 18 hours, 37° C.
Description: as §2

Strep. 641848-C = assay: MIC against human bacteria; settings: nutrient agar, 5% chocolated horse blood, 18 hours, 37° C.
Description: as §2

Bacillus subtilis 6633 = assay: MIC against human bacteria; settings: nutrient agar, 5% chocolated horse blood, 18 hours, 37° C.
Description: as §2

[12] = tested on: Haemophilus influenzae Q1; assay: MIC against human bacteria; settings: nutrient agar, 5% chocolated horse blood, 18 hours, 37° C., read-out: MIC
Description: as §2

P. mirabilis 889 = assay: MIC against human bacteria; settings: nutrient agar, 5% chocolated horse blood, 18 hours, 37° C.
Description: as §2

E. coli NCTC 10418 [13] = assay: MIC against human bacteria; settings: nutrient agar, 5% chocolated horse blood, 18 hours, 37° C.
Description: as §2

Staph. aureus W2827 = assay: MIC against human bacteria; settings: nutrient agar, 5% chocolated horse blood, 18 hours, 37° C.
Description: as §2

Sarcina lutea 8340 = assay: MIC against human bacteria; settings: nutrient agar, 5% chocolated horse blood, 18 hours, 37° C.
Description: as §2

[14] = tested on: Corynebacterium xerosis 9755; assay: MIC against human bacteria; settings: nutrient agar, 5% chocolated horse blood, 18 hours, 37° C.
Description: as §2

E. coli ESS = assay: MIC against human bacteria; settings: nutrient agar, 5% chocolated horse blood, 18 hours, 37° C.
Description: as §2

Strep. 2788-B = assay: MIC against human bacteria; settings: nutrient agar, 5% chocolated horse blood, 18 hours, 37° C.
Description: as §2

Staph. aureus Oxford [15] = assay: MIC against human bacteria; settings: nutrient agar, 5% chocolated horse blood, 18 hours, 37° C.
Description: as §2

[16] = tested on: Neisseria catarrhalis 1502; assay: MIC against human bacteria; settings: nutrient agar, 5% chocolated horse blood, 18 hours, 37° C.
Description: as §2

[17] = tested on: Strep. pyrogenes R80/421-A; assay: MIC against human bacteria; settings: nutrient agar, 5% chocolated horse blood, 18 hours, 37° C.
Description: as §2

Staph. aureus Russell = assay: MIC against human bacteria; settings: nutrient agar, 5% chocolated horse blood, 18 hours, 37° C.
Description: as §2

Past. multocida 1633 = assay: MIC against human bacteria; settings: nutrient agar, 5% chocolated horse blood, 18 hours, 37° C.
Description: as §2

K. aerogenes A = assay: MIC against human bacteria; settings: nutrient agar, 5% chocolated horse blood, 18 hours, 37° C.
Description: as §2

M. suipneumoniae MS16 = assay: In vitro anti-mycoplasmal MIC; settings: Mesomycoplasma hyopneumoniae, 144 h, Friis broth, 0.9% agarose, 6 days, 37° C., read-out: MIC
M. suipneumoniae HK(2) = assay: In vitro anti-mycoplasmal MIC; settings: Friis broth, 0.9% agarose, 6 days, 37° C.
M. gallisepticum S6 = assay: In vitro anti-mycoplasmal MIC; settings: Friis broth, 0.9% agarose, 6 days, 37° C.
M. bovis NCTC 10131 = assay: microbe, parasite or virus in culture; settings: M. bovis NCTC 10131; Friis broth, 0.9% agarose; 6 days, 37° C.
M. suipneumoniae NB12 = assay: In vitro anti-mycoplasmal MIC; settings: Friis broth, 0.9% agarose, 6 days, 37° C.
[18] = tested on: M. hyosynoviae ATCC 25591; assay: In vitro anti-mycoplasmal MIC; settings: 144 h, Friis broth, 0.9% agarose, 6 days, 37° C., read-out: MIC
M. hyorhinis ATCC 23234 = assay: In vitro anti-mycoplasmal MIC; settings: Mesomycoplasma hyorhinis, ATCC23234, 144 h, Friis broth, 0.9% agarose, 6 days, 37° C., read-out: MIC
[19] = tested on: M. suipneumoniae ATCC 25095; assay: In vitro anti-mycoplasmal MIC; settings: Friis broth, 0.9% agarose, 6 days, 37° C.
M. suipneumoniae JF435 = assay: In vitro anti-mycoplasmal MIC; settings: Friis broth, 0.9% agarose, 6 days, 37° C.
M. hyorhinis ATCC 25021 = assay: In vitro anti-mycoplasmal MIC; settings: Mesomycoplasma hyorhinis, ATCC25021, 144 h, Friis broth, 0.9% agarose, 6 days, 37° C., read-out: MIC
M. dispar NCTC 10125 = assay: In vitro anti-mycoplasmal MIC; settings: 144 h, Friis broth, 0.9% agarose, 6 days, 37° C., read-out: MIC

## CCOC(=O)C(F)=C(C)CC1OCC(CC2OC2C(C)C(C)O)C(O)C1O [Example 2, Ethyl-4-[5S-(2S,3S-epoxy-5S-hydroxy-4S-methylhexyl)-3R, 4R-dihydroxytetrahydropyran-2S-yl]-2-fluoro-3-methylbut-2(E)-enoate]
[1]
  MIC: 5 µg/mL (≈ 12.8 µM)
[2]
  MIC: 10.0 µg/mL (≈ 25.6 µM)
M. suipneumoniae Str.11
  MIC: 5.0 µg/mL (≈ 12.8 µM)
M. suipneumoniae UCD 1
  MIC: 10.0 µg/mL (≈ 25.6 µM)
M. suipneumoniae LABER
  MIC: 5 µg/mL (≈ 12.8 µM)
[3]
  MIC: 0.5 µg/mL (≈ 1.28 µM)
M. pneumoniae ATCC 15492
  MIC: 10.0 µg/mL (≈ 25.6 µM)
Strep. dysgalactiae SPD1
  MIC: 40.0 µg/mL (≈ 102 µM)
Bord. bronchiseptica B08
  MIC: > 80.0 µg/mL
E. coli NCTC 10418 [4]
  MIC: > 80.0 µg/mL
[5]
  MIC: 80.0 µg/mL (≈ 205 µM)
Past. haemolytica PA5
  MIC: 80.0 µg/mL (≈ 205 µM)
Staph. aureus 152
  MIC: 40.0 µg/mL (≈ 102 µM)
S. typhimurium S18
  MIC: > 80.0 µg/mL
[6]
  MIC: 80.0 µg/mL (≈ 205 µM)
Past. multocida PA1
  MIC: 40.0 µg/mL (≈ 102 µM)
Staph. aureus Oxford [7]
  MIC: 40.0 µg/mL (≈ 102 µM)
E. coli E1
  MIC: > 80.0 µg/mL
[8]
  MIC: 80.0 µg/mL (≈ 205 µM)
Past. multocida PA2
  MIC: 20.0 µg/mL (≈ 51.2 µM)
Staph. aureus B4
  MIC: 40.0 µg/mL (≈ 102 µM)
Strep. agalactiae SPA1
  MIC: 80.0 µg/mL (≈ 205 µM)
Bord. bronchiseptica B09
  MIC: > 80.0 µg/mL
Strep. uberis SPU1
  MIC: 20.0 µg/mL (≈ 51.2 µM)
S. dublin S7
  MIC: > 80.0 µg/mL
[9]
  MIC: 10.0 µg/mL (≈ 25.6 µM)
M. suipneumoniae TAM 6N
  MIC: 10.0 µg/mL (≈ 25.6 µM)
[10]
  MIC: 10 µg/mL (≈ 25.6 µM)
Strep. faecalis I
  MIC: > 100.0 µg/mL
[11]
  MIC: > 100.0 µg/mL
Strep. pneumoniae CN33
  MIC: 100.0 µg/mL (≈ 256 µM)
Strep. 641848-C
  MIC: 100.0 µg/mL (≈ 256 µM)
Bacillus subtilis 6633
  MIC: 100.0 µg/mL (≈ 256 µM)
[12]
  MIC: 10 µg/mL (≈ 25.6 µM)
P. mirabilis 889
  MIC: > 100.0 µg/mL
E. coli NCTC 10418 [13]
  MIC: > 100.0 µg/mL
Staph. aureus W2827
  MIC: 50.0 µg/mL (≈ 128 µM)
Sarcina lutea 8340
  MIC: > 100.0 µg/mL
[14]
  MIC: > 100.0 µg/mL
E. coli ESS
  MIC: 50.0 µg/mL (≈ 128 µM)
Strep. 2788-B
  MIC: > 100.0 µg/mL
Staph. aureus Oxford [15]
  MIC: 25.0 µg/mL (≈ 64 µM)
[16]
  MIC: 10.0 µg/mL (≈ 25.6 µM)
[17]
  MIC: 100.0 µg/mL (≈ 256 µM)
Staph. aureus Russell
  MIC: 50.0 µg/mL (≈ 128 µM)
Past. multocida 1633
  MIC: 50.0 µg/mL (≈ 128 µM)
K. aerogenes A
  MIC: > 100.0 µg/mL
M. suipneumoniae MS16
  MIC: 5 µg/mL (≈ 12.8 µM)
M. suipneumoniae HK(2)
  MIC: 10.0 µg/mL (≈ 25.6 µM)
M. gallisepticum S6
  MIC: 10.0 µg/mL (≈ 25.6 µM)
M. bovis NCTC 10131
  MIC: 0.25 µg/mL (≈ 0.64 µM)
M. suipneumoniae NB12
  MIC: 10.0 µg/mL (≈ 25.6 µM)
[18]
  MIC: 10 µg/mL (≈ 25.6 µM)
M. hyorhinis ATCC 23234
  MIC: 5 µg/mL (≈ 12.8 µM)
[19]
  MIC: 10.0 µg/mL (≈ 25.6 µM)
M. suipneumoniae JF435
  MIC: 10.0 µg/mL (≈ 25.6 µM)
M. hyorhinis ATCC 25021
  MIC: 5 µg/mL (≈ 12.8 µM)
M. dispar NCTC 10125
  MIC: 2.5 µg/mL (≈ 6.4 µM)
